Measurements: patent US6605589B1, “Cathepsin inhibitors in cancer treatment” (Parker Hughes Institute, priority 2000, dated 2003)
Residues, ends and D or L forms follow the SMILES beside them. *: point of attachment. Cbz = O=C(OCc1ccccc1)*; CH2F = FC*

Test system: SQ-20B, BT-20, U373, HeLa and NCI-H520 cells
Assay: CATI-1 induced apoptosis in presence of caspase inhibitor I (flow cytometry)
Assay type: cell-based, human
Details: 50 μM caspase inhibitor I with 50 μM CATI-1, 24 hours; any cell line tested
Description: The percentages indicate the fraction of cells at an early stage of apoptosis (lower right quadrant), as measured by single MC540 fluorescence, and the fraction of cells at an advanced stage of apoptosis (upper right quadrant).
Quantitative flow cytometric apoptosis detection assays were performed on BT-20 (breast cancer), PC-3 (prostate cancer), U373 (glioblastoma), SQ20B (squamous cell carcinoma), HeLa (cervix cancer), and DU145 (prostate cancer). Just prior to the assay, one mg/ml stock solutions of MC540 (Sigma, St. Louis, Mo.) and PI (Sigma, St. Louis, Mo.) were filtered through a 0.22 μm filter and stored at 4° C. in the dark. […] Stained cells were analyzed with a FACStar Plus flow cytometer (Becton Dickinson, San Jose, Calif.) using the 488-nm excitation from an argon laser. […] In each experiment approximately 10,000 cells were analyzed by FACS and the percentage of cells at early (MC540 fluorescence only) and advanced (dual MC540 plus PI fluorescence) stages of apoptosis obtained.
Human cancer cell lines were treated with 50 μM CATI-1 in the presence and absence of 50 μM caspase inhibitor I (Z-Val-Ala-Asp(Ome)-CH2F) (Calbiochem, La Jolla, Calif.) for 24 hours to determine whether caspases were required for cathepsin inhibitor activity. […] Quantitative flow cytometric apoptosis detection assays were performed on treated cells as previously discussed in Example II.

## COC(=O)C[C@H](NC(=O)[C@H](C)NC(=O)[C@@H](NC(=O)OCc1ccccc1)C(C)C)C(=O)CF [caspase inhibitor I, Z-Val-Ala-Asp(Ome)-CH2F] (Cbz-Val-Ala-Asp(OMe)-CH2F)
  impact on CATI-1 induced apoptosis: no detectable impact
